The test addresses PKBα (Homo sapiens, UniProt P31749). In words: PKB kinase assay (P33-labeled ATP, peptide substrate, filter plate). It is filed as biochemical. To be noted: PKBα enzyme (full length or kinase domain with pleckstrin domain deleted). The source says:
The kinase assay for evaluating PKB activity comprises active PKB enzymes, a PKB specific substrate, and P^33-labeled ATP. […] The phosphorylated substrate was captured by a phosphocellulose membrane filter plate (MLLIPORE) and measured by a Wallac Microbeta liquid scintillation counter (Perkin Elmer).

The structures appear in SMILES notation.

Sequence of PKBα (P31749 118-480 limits assumed): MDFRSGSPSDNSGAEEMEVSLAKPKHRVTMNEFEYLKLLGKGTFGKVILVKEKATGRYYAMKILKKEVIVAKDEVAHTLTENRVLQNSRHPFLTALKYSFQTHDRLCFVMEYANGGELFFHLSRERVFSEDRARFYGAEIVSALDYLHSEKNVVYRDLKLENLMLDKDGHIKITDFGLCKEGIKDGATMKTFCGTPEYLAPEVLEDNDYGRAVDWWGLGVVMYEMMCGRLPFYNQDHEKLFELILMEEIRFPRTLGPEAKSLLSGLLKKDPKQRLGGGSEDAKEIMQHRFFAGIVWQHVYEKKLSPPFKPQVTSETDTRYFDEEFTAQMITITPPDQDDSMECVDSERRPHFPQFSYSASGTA

For `C[C@@H](c1ccc(C(F)(F)F)cc1)[C@H](N)CNc1ncc(-c2ccc3[nH]c(=O)n(C)c3c2)s1` [Example 93, 6-(2-((2S,3S)-2-amino-3-(4-(trifluoromethyl)phenyl)butylamino)thiazol-5-yl)-1-methyl-1H-benzo[d]imidazol-2(3H)-one], the IC50 is 0.05 to 1 µM. The compound `COCC#Cc1nc(NC[C@@H](N)Cc2ccc(C(F)(F)F)cc2)sc1-c1ccc2cnccc2c1` [Example 146, N—((S)-2-amino-3-(4-(trifluoromethyl)phenyl)propyl)-5-(isoquinolin-6-yl)-4-(3-methoxyprop-1-ynyl)thiazol-2-amine] came in with an IC50 of 0.05 to 1 µM.

In turn, `N[C@H](CNc1nc(CO)c(-c2ccc3c(c2)CC(=O)N3)s1)Cc1ccc(C(F)(F)F)cc1` [Example 123, 5-(2-((S)-2-Amino-3-(4-(trifluoromethyl)phenyl)propylamino)-4-(hydroxymethyl)thiazol-5-yl)indolin-2-one] had an IC50 of less than 0.05 µM. Next, `N[C@H](CNc1ncc(-c2ccc3cnccc3c2)s1)Cc1cccc(Cl)c1` [Example 66, N—((S)-2-amino-3-(3-chlorophenyl)propyl)-5-(isoquinolin-6-yl)thiazol-2-amine]: less than 0.05 µM. With `N[C@H](CNc1nc(Br)c(-c2nc3ccncc3s2)s1)Cc1ccc(C(F)(F)F)cc1` [Example 111, N—((S)-2-Amino-3-(4-(trifluoromethyl)phenyl)propyl)-4-bromo-5-(thiazolo[5,4-c]pyridin-2-yl)thiazol-2-amine], the IC50 lay in the range of 0.05 to 1 µM. For `COCc1nc(NC[C@@H](N)Cc2ccc(C(F)(F)F)cc2)sc1-c1ccc2[nH]nc(C)c2c1` [Example 15, N—((S)-2-amino-3-(4-(trifluoromethyl)phenyl)propyl)-4-(methoxymethyl)-5-(3-methyl-1H-indazol-5-yl)thiazol-2-amine], the IC50 fell in the range of 0.05 to 1 µM.

Turning to `N[C@H](CNc1ncc(-c2ccc3c(c2)OCO3)s1)Cc1c[nH]c2ccccc12` [Example 251, N—((S)-2-amino-3-(1H-indol-3-yl)propyl)-5-(benzo[d][1,3]dioxol-5-yl)thiazol-2-amine], the IC50 lay in the range of 1 to 10 µM. The same measure for `N[C@H](CNc1ncc(-c2ccc3c(c2)CC(=O)N3)s1)Cc1cc(F)cc(F)c1` [Example 163, 5-(2-((S)-2-amino-3-(3,5-difluorophenyl)propylamino)thiazol-5-yl)indolin-2-one]: 1 to 10 µM. Next, `C/C=C/[C@@H](c1ccc(C(F)(F)F)cc1)[C@H](N)CNc1ncc(-c2ccc3c(c2)CC(=O)N3)s1` [Example 155, 5-(2-((2S,3S,E)-2-amino-3-(4-(trifluoromethyl)phenyl)hex-4-enylamino)thiazol-5-yl)indolin-2-one]: less than 0.05 µM; `COCc1nc(NC[C@@H](N)Cc2c[nH]c3ccccc23)sc1-c1nc2ccncc2s1` [Example 27, N—((S)-2-amino-3-(1H-indol-3-yl)propyl)-4-(methoxymethyl)-5-(thiazolo[5,4-c]pyridin-2-yl)thiazol-2-amine]: 0.05 to 1 µM. For the compound `N[C@H](CNc1ncc(-c2ccc3c(c2)CC(=O)N3)s1)Cc1ccc(F)c(F)c1` [Example 126, 5-(2-((S)-2-Amino-3-(3,4-difluorophenyl)propylamino)thiazol-5-yl)indolin-2-one], the IC50 lay in the range of 0.05 to 1 µM.

Consider `C[C@@H](Nc1ncc(-c2ccc3c(c2)CC(=O)N3)s1)[C@@H](N)Cc1ccc(C(F)(F)F)cc1` [Example 229, 5-(2-((2R,3S)-3-amino-4-(4-(trifluoromethyl)phenyl)butan-2-ylamino)thiazol-5-yl)indolin-2-one], for which the IC50 was less than 0.05 µM.

`NC(CNc1ncc(-c2ccc3c(c2)CC(=O)N3)s1)Cc1ccc(O)c(F)c1` (centres unmarked) [Example 217, 5-(2-(2-Amino-3-(3-fluoro-4-hydroxyphenyl)propylamino)thiazol-5-yl)indolin-2-one] registered an IC50 of 0.05 to 1 µM.

Compound `N[C@H](CNc1nc(CO)c(-c2ccc3[nH]ncc3c2)s1)Cc1ccc(C(F)(F)F)cc1` [Example 12, (2-((S)-2-amino-3-(4-(trifluoromethyl)phenyl)propylamino)-5-(1H-indazol-5-yl)thiazol-4-yl)methanol] gave an IC50 of less than 0.05 µM. Take `N[C@H](CNc1ncc(-c2cc3oc(=O)[nH]c3cc2F)s1)Cc1ccc(C(F)(F)F)nc1` [Example 219, 6-(2-((S)-2-amino-3-(6-(trifluoromethyl)pyridin-3-yl)propylamino)thiazol-5-yl)-5-fluorobenzo[d]oxazol-2(3H)-one]: the IC50 lay within 0.05 to 1 µM. In turn, `COCc1nc(NC[C@@H](N)Cc2cccc(Cl)c2)sc1-c1nc2ccncc2s1` [Example 18, N—((S)-2-amino-3-(3-chlorophenyl)propyl)-4-(methoxymethyl)-5-(thiazolo[5,4-c]pyridin-2-yl)thiazol-2-amine] returned a 50% inhibitory concentration (IC50) of 1 to 10 µM. The same measure for `N[C@H](CNc1ncc(-c2ccc3cnccc3c2)s1)Cc1ccc(C(F)(F)F)nc1` [Example 170]: less than 0.05 µM. For `N[C@H](CNc1ncc(-c2ccc3c(c2)/C(=C/c2ccco2)C(=O)N3)s1)Cc1c[nH]c2ccccc12` (stereo in doubt) [Example 72, (E)- and (Z)-5-(2-((S)-2-amino-3-(1H-indol-3-yl)propylamino)thiazol-5-yl)-3-(furan-2-ylmethylene)indolin-2-one ditrifluoroacetates], the IC50 lay in the range of 0.05 to 1 µM.

`C[C@@H](c1ccccc1)[C@H](N)CNc1ncc(-c2ccc3cnccc3c2)s1` [Example 91, N-((2S,3S)-2-Amino-3-phenylbutyl)-5-(isoquinolin-6-yl)thiazol-2-amine]: the IC50 lay in the range of 0.05 to 1 µM.

In turn, `N[C@H](CNc1ncc(-c2ccc3c(c2)CC(=O)N3)s1)Cc1ccc(Cl)cc1` [Example 54, 5-(2-((S)-2-Amino-3-(4-chlorophenyl)propylamino)thiazol-5-yl)indolin-2-one] had an IC50 of less than 0.05 µM. Next, `COCc1nc(NC[C@@H](N)Cc2ccc(C(F)(F)F)cc2)sc1-c1ccc2[nH]ncc2c1` [Example 14, N—((S)-2-amino-3-(4-(trifluoromethyl)phenyl)propyl)-5-(1H-indazol-5-yl)-4-(methoxymethyl)thiazol-2-amine]: less than 0.05 µM; `C[C@@H](c1ccc(C(F)(F)F)nc1)[C@H](N)CNc1ncc(-c2ccc3c(c2)CC(=O)N3)s1` [Example 233, 5-(2-((2S,3S)-2-amino-3-(6-(trifluoromethyl)pyridin-3-yl)butylamino)thiazol-5-yl)indolin-2-one]: less than 0.05 µM; `N#Cc1ccc(-c2cnc(NC[C@@H](N)Cc3ccc(C(F)(F)F)cc3)s2)cc1F` [Example 166, 4-(2-((S)-2-amino-3-(4-(trifluoromethyl)phenyl)propylamino)thiazol-5-yl)-2-fluorobenzonitrile]: 0.05 to 1 µM. Consider `Cc1ccc(C[C@H](N)CNc2ncc(-c3ccc4c(c3)CC(=O)N4)s2)cc1` [Example 116, 5-(2-((S)-2-Amino-3-p-tolylpropylamino)thiazol-5-yl)indolin-2-one], for which the IC50 was in the range of 0.05 to 1 µM. `COC(=O)c1nc(NC[C@@H](N)Cc2ccc(C(F)(F)F)cc2)sc1-c1ccc2cnccc2c1` [Example 117, Methyl 2-((S)-2-amino-3-(4-(trifluoromethyl)phenyl)-propylamino)-5-(isoquinolin-6-yl)thiazole-4-carboxylate] displayed an IC50 of less than 0.05 µM. The compound `N[C@H](CNc1ncc(-c2ccc3cnccc3c2)s1)Cc1cc(F)cc(F)c1` [Example 161, N—((S)-2-amino-3-(3,5-difluorophenyl)propyl)-5-(isoquinolin-6-yl)thiazol-2-amine] came in with an IC50 of 0.05 to 1 µM. The same measure for `N[C@H](CNc1ncc(-c2ccc3c(c2)CC(=O)N3)s1)Cc1ccc(Cl)c(Cl)c1` [Example 114, 5-(2-((S)-2-Amino-3-(3,4-dichlorophenyl)propylamino)thiazol-5-yl)indolin-2-one]: less than 0.05 µM. The same measure for `NC(CNc1ncc(-c2ccc3[nH]ncc3c2)s1)Cc1ccc(C(F)(F)F)c(F)c1F` (centres unmarked) [Example 190, N-(2-amino-3-(2,3-difluoro-4-(trifluoromethyl)phenyl)propyl)-5-(1H-indazol-5-yl)thiazol-2-amine]: less than 0.05 µM. Next, `CC(O)C#Cc1nc(NC[C@@H](N)Cc2ccc(C(F)(F)F)cc2)sc1-c1ccc2cnccc2c1` (stereo partly drawn) [Example 141, 4-(2-((S)-2-amino-3-(4-(trifluoromethyl)phenyl)propylamino)-5-(isoquinolin-6-yl)thiazol-4-yl)but-3-yn-2-ol]: less than 0.05 µM; `Cc1n[nH]c2ccc(-c3sc(NC[C@@H](N)Cc4ccc(C(F)(F)F)cc4)nc3C#CCO)cc12` [Example 149, 3-(2-((S)-2-amino-3-(4-(trifluoromethyl)phenyl)propylamino)-5-(3-methyl-1H-indazol-5-yl)thiazol-4-yl)prop-2-yn-1-ol]: less than 0.05 µM. Take `N[C@H](CNc1ncc(-c2ccc3[nH]c(=O)oc3c2)s1)Cc1ccc(Cl)s1` [Example 213, 6-(2-((S)-2-amino-3-(5-chlorothiophen-2-yl)propylamino)thiazol-5-yl)benzo[d]oxazol-2(3H)-one]: the IC50 lay in the range of 0.05 to 1 µM.

Compound `N[C@H](CNc1ncc(-c2ccc3cnccc3c2)s1)Cc1ccc(Cl)c(F)c1` [Example 85, N—((S)-2-Amino-3-(4-chloro-3-fluorophenyl)propyl)-5-(isoquinolin-6-yl)thiazol-2-amine] had an IC50 of less than 0.05 µM. As to `Nc1cc2cc(-c3cnc(NC[C@@H](N)Cc4ccc(C(F)(F)F)cc4)s3)ccc2cn1` [Example 75, 6-(2-((S)-2-Amino-3-(4-(trifluoromethyl)phenyl)propylamino)thiazol-5-yl)isoquinolin-3-amine], the IC50 was less than 0.05 µM. For the compound `COCc1nc(N(C[C@@H](N)Cc2ccc(Cl)cc2)C(C)=O)sc1-c1nc2ccncc2s1` [Example 25, N—((S)-2-amino-3-(4-chlorophenyl)propyl)-N-(4-(methoxymethyl)-5-(thiazolo[5,4-c]pyridin-2-yl)thiazol-2-yl)acetamide], the IC50 is 0.05 to 1 µM. In turn, `N[C@H](CNc1ncc(-c2ccc3c(c2)CC(=O)N3)s1)Cc1ccc(C(F)(F)F)cc1` [Example 42, 5-(2-((S)-2-amino-3-(4-(trifluoromethyl)phenyl)propylamino)thiazol-5-yl)indolin-2-one] registered an IC50 of less than 0.05 µM.

The term IC50 denotes the concentration that gives 50% inhibition.

The values are drawn from patent publication US8084479B2, “Thiazole compounds and methods of use” (Amgen Inc., priority 2006, dated 2011).
